Experimental data from patent publication EP0017478A1, “Dialkoxy- and dioxacycloalkyl-alkyltheobromines, pharmaceutical compositions containing them and their preparation” (BEECHAM - WUELFING GmbH & Co. KG, priority 1979, dated 1980).

Key:
[1] = system: gastrocnemius muscle; assay: Measurement of muscle surface pO2 (multiwire-surface electrode, one femoral artery ligated to induce ischaemia); assay type: in vivo, Cats; details: 12.5 mg/kg i.d., suspension in Methocel, n = 4; for Cs (significance coefficient = number of measuring sites with significant pO2 increase per total number of measuring sites) / ΔpO2 (mean pO2 increase in experiments with significant pO2 increase): anaesthetized cats; for E (efficiency-index = Cs x ΔpO2): control values E between 0.1 and 1.2 Torr
Protocol: (§1) Cats of either sex were anaesthetized by i.p. injection of urethane/chloralosc (120/60 mg/kg). The intraduodenal (i.d.) administration of compounds was conducted by means of a plastic.catheter which was inserted into the duodenum following midline incision at the abdominal cavity.
Measurement of muscle surface p02. The skin above the measuring site (3-4 mm in diameter) was removed and one multiwire-surface electrode (Eschweiler, Kiel) was placed on the gastrocnemius muscle of each hindlimb. The femoral artery in one hindlimb was ligated in order to induce ischaemia. Muscle temperature was controlled by means of a thermocouple (Ellab, Copenhagen). The electrode current was measured every 6 to 8 s and collected for periods of 4 min (Hewlett-Packard programmable data logger system 3051 A). After each period, mean value and standard deviation was calculated.

[2] = Observation of toxic effects at the test dosages; assay type: in vivo; details: at the test dosage 12.5 mg/kg i.d., cats
Protocol: as §1

Structure (SMILES): Cn1cnc2c1c(=O)n(CCCCC1(C)OCCO1)c(=O)n2C [2-Methyl-2-(theobrominyl-butyl-4)-1,3-dioxalane]
- Cs (significance coefficient = number of measuring sites with significant pO2 increase per total number of measuring sites) ([1]; hypoxic tissue): 1
- ΔpO2 (mean pO2 increase in experiments with significant pO2 increase) ([1]; hypoxic tissue): 3.7 Torr
- E (efficiency-index = Cs x ΔpO2) ([1]; hypoxic tissue): 3.7 Torr
- Cs (significance coefficient = number of measuring sites with significant pO2 increase per total number of measuring sites) ([1]; normoxic tissue): 1
- ΔpO2 (mean pO2 increase in experiments with significant pO2 increase) ([1]; normoxic tissue): 4.8 Torr
- E (efficiency-index = Cs x ΔpO2) ([1]; normoxic tissue): 4.8 Torr
- toxic effects [2]: No toxic effects were observed
